Experimental data taken from PubChem BioAssay AID1159557 (GlaxoSmithKline (GSK), 2015).
Active and inactive are the calls of the source. How the calls were made is not given here.

Tested on: Trypanosoma brucei growth inhibition
Assay: trypanosome proliferation inhibitors (AID 1159557);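 further: parasites exposed to compound for 48 h before the resazurin readout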

Compound | IC50
CC(=O)Nc1ccc(CN2CCC(N3CC(c4ccccc4)(c4ccccc4)OCC3=O)CC2)cc1 | 320 nM
Cc1nc(N2CCC(C(=O)N3CCC(O)(c4cccnc4)CC3)CC2)nc2ccc(C(C)C)cc12 | 20000 nM
CC(=O)Nc1ccc(-c2noc(CC3CCCN(Cc4cccc(F)c4C)C3)n2)cc1 (stereo not given) | 20000 nM
COc1cc2c(cc1OC)[C@H]1[C@@H](C)c3ccc(OC)c(OC)c3CN1CC2 | 25000 nM
Cc1nc2c(-c3cccs3)c(C)nn2c(NCCO)c1C | 130 nM
Cc1nn(-c2nc(N)nc(-c3ccccn3)n2)c(C)c1Cc1ccccc1 | > 40000 nM (inactive)
O=c1cc(NCCCNC2CCOc3c(I)cc(Cl)cc32)[nH]c2ccccc12 (stereo not given) | 10 nM
O=C(Nc1cccc(S(=O)(=O)Nc2ccc(Br)cc2)c1)c1ccc([N+](=O)[O-])s1 | 200 nM
CC(C)n1c(-c2nonc2N)nc2cccc(OCCN3CCCC3)c21 | 790 nM
COc1cccc2sc(CN(C)C(=O)C3CNCCN3c3ccc(F)cc3)c(C)c12 (stereo not given) | 160 nM
COc1ccc2ncc(F)c(CCN3CC[C@@H](NC(=O)c4cc5c(s4)CCC5)[C@@H](O)C3)c2n1 | 100 nM
O=[N+]([O-])c1ccc(-c2nnn(-c3cccnc3)n2)o1 | 320 nM
O=C1CN(Cc2ccco2)C2CS(=O)(=O)CC2N1c1ccc(Cl)cc1 (stereo not given) | 320 nM
FC(F)(F)c1cc(C2CCCN(Cc3c[nH]c4ccccc34)C2)nc2ncnn12 (stereo not given) | > 40000 nM (inactive)
CN(C)c1ccc(N)cc1CN(CC1CCCO1)S(C)(=O)=O (stereo not given) | > 40000 nM (inactive)
COc1ccc2ncc(=O)n(CCN3CCC(NCc4ccc(-c5cccs5)cc4)CC3)c2n1 | 3200 nM
Cc1ccc2ccc(C(Nc3ccccn3)c3cccnc3)c(O)c2n1 (stereo not given) | 5000 nM
c1ccc2sc(Nc3nc4ncccc4[nH]3)nc2c1 | 1000 nM
Cc1ccc(NC(=O)c2ccnc(N3CCCC3)c2)cc1-c1cc(C(N)=O)ccc1C | 100 nM
CN1CCN(c2nc(-c3ccc(Cl)cc3)c3c(N)n(C)nc3n2)CC1 | 13000 nM
O=c1ccc2ccc(F)c3c2n1C[C@H]3CN1CCN(CC(O)c2cc3c(cn2)OCS3)CC1 (stereo not given in full) | 200 nM
Cc1cn[nH]c1C1CCCN(Cc2nc3ccccc3n2C)C1 (stereo not given) | 6300 nM
CC(=Cc1ccccc1)CN1CCC(=O)N(Cc2cccnc2)CC1 | > 40000 nM (inactive)
CNc1cc(Cn2c(C(=O)c3cc(C)cc(Cl)c3)c(C(C)C)c(=O)[nH]c2=O)ccn1 | 25000 nM
Cc1cc(=O)n2nc(Oc3ccc(C#N)cc3Cl)sc2n1 | 630 nM

Compound | IC50
O=C(NCCc1cccnc1)c1ccc(-c2ccccc2F)o1 | 32000 nM
Cc1ccc(S(C)(=O)=O)cc1Nc1nccc(-c2sc(N)nc2-c2ccccc2)n1 | 790 nM
COc1ccc2ncc(=O)n(CCN3CC[C@H](NCc4ncc(Cl)c5[nH]ncc45)[C@H](O)C3)c2n1 | 320 nM
CCOc1ccc(CN(C)Cc2nc(N)nc(Nc3ccc(C)cc3)n2)cc1 | 2500 nM
N#Cc1cccc(Cc2cc(Nc3cc(C4CC4)[nH]n3)nc(N3CC[C@H]3C(N)=O)n2)c1 | 40 nM
c1ccc(-c2nc(NC3CCCC3)c3ccccc3n2)nc1 | 6300 nM
O=C(NC(c1ccc(Cl)cc1)c1cnccn1)C1CCN(C(=O)Nc2cccc(C(F)(F)F)c2)CC1 (stereo not given) | 13000 nM
CCN(CC)S(=O)(=O)c1ccc(C)c(NC(=O)c2cc(Cl)c3c(c2)OCO3)c1 | 320 nM
COc1ccc2nccc(NC(=O)C3(OC)CCN(CC(O)c4ccc5c(c4)OCCO5)CC3)c2n1 (stereo not given) | 400 nM
COc1cnc2ccc(=O)n(CCN3CCC(NC/C=C/c4cc(F)ccc4F)CC3)c2c1 | 400 nM
COc1ccc(CNc2nsc3ccccc23)cc1OC | 7900 nM
OCC1CCCCN1c1cc(-c2ccccn2)nc(Nc2ccccc2)n1 (stereo not given) | 5000 nM
O=C1NCc2cccc(Nc3nc(NC4CCC(O)CC4)ncc3Br)c21 (stereo not given) | 63 nM
CCCCc1cc(Nc2cc(C3CCC3)[nH]n2)nc(N2CCC2C(N)=O)n1 (stereo not given) | 130 nM
COc1cccc(S(=O)(=O)Nc2ccc3c(c2)CC(N2CCC(NC(=O)C4CC4)CC2)C3)c1 (stereo not given) | 1000 nM
Cn1nccc1-c1cc(OC(CN)c2ccccc2)cnc1-c1ccco1 (stereo not given) | 13000 nM
CCN(Cc1nc2ccc(C(=O)N3CCN(c4ncccn4)CC3)cc2[nH]1)C1CCCc2cccnc21 (stereo not given) | 2500 nM
CC(C)Oc1ccc(C(=O)Nc2ccc(N3CCOCC3)c(Cl)c2)cc1 | 13000 nM
CCC1Oc2cc(S(=O)(=O)N(C)CC(=O)N3CCc4ccccc4C3)c(C)cc2NC1=O (stereo not given) | 25000 nM
NS(=O)(=O)c1ccc(CNC(=O)c2ccc([N+](=O)[O-])s2)cc1 | 250 nM
CC(CNS(=O)(=O)c1ccc(OC(F)F)cc1)c1ccc(NC(=O)c2ccncc2)cc1 (stereo not given) | 7900 nM
Cc1ccc(S(=O)(=O)Nc2ccc(CN3CCN(C(=O)c4cccc(C#N)c4)CC3)cc2)cc1 | 160 nM
O=C(CN(Cc1ccccn1)Cc1ccccn1)NCc1ccc2c(c1)OCO2 | 6300 nM
Cn1ccnc1CN1CCc2[nH]cnc2C1c1ccccc1OCc1ccccc1 (stereo not given) | 400 nM
Cc1[nH]nc(C(F)(F)F)c1NC(=O)CCn1cc(Cl)c([N+](=O)[O-])n1 | 500 nM

Compound | IC50
COc1ccc2c(Cl)c(C(=O)N3CCC3)sc2c1Cl | 20000 nM
COCCn1c(-c2ccc3c(c2)OCO3)cnc1NCc1ccccc1OC | 20000 nM
COc1ccc(-c2cnc(NC(=O)c3cc(-c4ccccn4)n[nH]3)n2C)cc1 | 400 nM
CC1(Oc2cncc(Cl)c2)CCN(Cc2cc3ccccc3[nH]2)C1 (stereo not given) | > 40000 nM (inactive)
COc1cc(OC)cc(C(=O)N[C@@H](CC(C)C)C(=O)NC2(C#N)CC2)c1 | 500 nM
Cc1ccc(-c2csc(NC(=O)C=Cc3ccc(S(=O)(=O)N4CCOCC4)cc3)n2)o1 | 3200 nM
O=C(CN1CCN(S(=O)(=O)c2cccc([N+](=O)[O-])c2)CC1)Nc1ccc(Oc2ccccc2)cc1 | 20000 nM
CN(C)CCN(C)Cc1ccc(F)cc1NS(=O)(=O)c1ccc(Cl)c(Cl)c1 | 5000 nM
O=C(Nc1nc(-c2ccc(F)cc2)cs1)c1ccc([N+](=O)[O-])s1 | 250 nM
Cc1cc(C#N)c([N+](=O)[O-])cc1Br | 790 nM
O=C(Nc1nc2cc(Cl)ccc2o1)c1cccc(Cl)c1 | 790 nM
COc1ccc(-c2cnc(NC(=O)c3ccc(F)cc3)n2C)cc1 | 1300 nM
O=C(NCCc1csc(-c2ccc(F)cc2)n1)c1cccs1 | 250 nM
CCS(=O)(=O)c1cccc(C(=O)Nc2nc(-c3ccccn3)cs2)c1 | 500 nM
COc1cccc(CCNC(=O)C(c2cn[nH]c2)N2CCN(c3ccc(Cl)cc3)CC2)c1 (stereo not given) | 20000 nM
CC(C)(C)Nc1nc(-c2ccccn2)nc2ccccc12 | 6300 nM
Cc1ccc(NC(=O)C(C)n2nc([N+](=O)[O-])c(Br)c2C)cc1Cl (stereo not given) | 16000 nM
CC(C)(C)C(Cn1ccnc1)NC(=O)c1ccc2nc(C3CC3)oc2c1 (stereo not given) | > 40000 nM (inactive)
CCn1c(-c2nonc2N)nc2c([C@@H](C)O)ncc(O[C@H](CN)c3ccccc3)c21 | 630 nM
Nc1nccc(-c2csc(Nc3ccc(Cl)cc3)n2)n1 | > 40000 nM (inactive)
CN(Cc1ccccc1)Cc1nnnn1C1CCN(Cc2ccc(-n3ccnc3)cc2)CC1 | > 40000 nM (inactive)
Cc1ccccc1CNC(=O)CN(Cc1ccccn1)Cc1ccccn1 | 6300 nM
N#Cc1ccccc1S(=O)(=O)N1CCN(C(=O)CNC(=O)c2ccc3c(c2)OCO3)CC1 | > 40000 nM (inactive)
CCOc1ccc(Nc2ccc(S(=O)(=O)N3CCN(C)CC3)cc2[N+](=O)[O-])cc1OCC | 6300 nM
c1ccc(CCNCc2cncc3nc(-c4cnccn4)n(C4CCCCC4)c23)cc1 | 32000 nM
